Assay results taken from patent US20250161338A1, “Compounds for Anti-aging Intervention” (AGENCY FOR SCIENCE, TECHNOLOGY AND RESEARCH, priority 2022, published 2025).

Assays:
[1] = system: prototrophic yeast strain (CEN.PK113-7D); experiment: Propidium iodide fluorescence-based CLS method in yeast (incl. high-throughput screening); assay type: cell-based, Saccharomyces cerevisiae; settings: for Yeast CLS increase: Yes/No call of the screen;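 on PI intensity: untreated reference is eight DMSO and water control wells per plate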
Outline: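 CEN.PK113-7D aged in SD medium at 30 °C with compounds (rapamycin 0–10 nM; sugars 0–8 mM; screen at single concentrations). At each age point cells were stained with 5 μg/mL PI for 15 min; fluorescence was normalized to OD600, background-subtracted, and survival scaled against boiled-cell control.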

[2] = system: prototrophic yeast strain (CEN.PK113-7D); experiment: Yeast outgrowth in YPD liquid medium (CLS of aged cells); assay type: cell-based, Saccharomyces cerevisiae; settings: age point day 14
Outline: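 Cultures aged at 30 °C in SD medium with double-diluted rapamycin (0–10 nM) or sugars/polyols (0–8 mM). On day 14, 3 µL of culture was transferred into 200 µL YPD and outgrowth read as OD600. Survival expressed relative to day 1 outgrowth (100%).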

[3] = concentration tested 100 μM, solvent DMSO or water, chronological age point Day 7 (72 h growth = Day 1), lower = more survival
[4] = concentration tested 100 μM, OD600 nm after 24 h in YPD at 30° C.
[5] = concentration tested 30 μg/mL, solvent water, age point Day 7
[6] = concentration tested 30 μg/mL, OD600 nm after 24 h in YPD

Cc1ccc(C(C)C)c(O)c1 [Thymol]
Yeast CLS increase ([1]; concentration tested 100 μM): No
PI intensity [1, 3]: 61,503.8
Outgrowth [2, 4]: 0.1

O=C(O)CCCCCCCCCCCC(=O)O [Tridecanedioic acid]
Yeast CLS increase ([1]; concentration tested 100 μM): No
PI intensity [1, 3]: 80,407.7
Outgrowth [2, 4]: 0.1

O=c1ccn([C@@H]2O[C@H](CO)[C@@H](O)[C@H]2O)c(=O)[nH]1 [Uridine]
Yeast CLS increase ([1]; concentration tested 100 μM): No
PI intensity [1, 3]: 84,894.9
Outgrowth [2, 4]: 0.1

O[C@H]([C@H](O)[C@@H]1CO1)[C@H]1CO1 [VAL-083]
Yeast CLS increase ([1]; concentration tested 100 μM): No
PI intensity [1, 3]: 63,325.5
Outgrowth [2, 4]: 0.1

COc1cc(C(=O)O)ccc1O [Vanillic acid]
Yeast CLS increase ([1]; concentration tested 100 μM): No
PI intensity [1, 3]: 64,546.4
Outgrowth [2, 4]: 0.1

COc1cc(O)c(C(C)=O)c(OC)c1 [Xanthoxylin]
Yeast CLS increase ([1]; concentration tested 100 μM): No
PI intensity [1, 3]: 70,352.1
Outgrowth [2, 4]: 0.1

CCCCC[C@H](O)CC(=O)CCc1ccc(O)c(OC)c1 [[6]-Gingerol]
Yeast CLS increase ([1]; concentration tested 100 μM): No
PI intensity [1, 3]: 61,395.3
Outgrowth [2, 4]: 0.1

N#CCCN [β-Aminopropionitrile]
Yeast CLS increase ([1]; concentration tested 100 μM): No
PI intensity [1, 3]: 65,865.6
Outgrowth [2, 4]: 0.1

CC(=O)O[C@H]1CC[C@H]2[C@@H]3CCc4cc(O)ccc4[C@H]3CC[C@]12C [β-Estradiol 17-acetate]
Yeast CLS increase ([1]; concentration tested 100 μM): Yes
PI intensity [1, 3]: 34,621.0
Outgrowth [2, 4]: 0.5

CC1(C)CCC2=C(O1)c1ccccc1C(=O)C2=O [β-Lapachone]
Yeast CLS increase ([1]; concentration tested 100 μM): No
PI intensity [1, 3]: 67,892.9
Outgrowth [2, 4]: 0.1

Amarogentin
Yeast CLS increase ([1]; concentration tested 100 μM): No
PI intensity [1, 3]: 70,083.5
Outgrowth [2, 4]: 0.1

Aprotinin
Yeast CLS increase ([1]; concentration tested 100 μM): No
PI intensity [1, 3]: 70,144.6
Outgrowth [2, 4]: 0.1

Catechin
Yeast CLS increase ([1]; concentration tested 100 μM): No
PI intensity [1, 3]: 63,589.5
Outgrowth [2, 4]: 0.1

Chondroitin (sulfate)
Yeast CLS increase ([1]; concentration tested 30 μg/mL): No
PI intensity [1, 5]: 75,572.6
Outgrowth [2, 6]: 0.1

Cisatracurium (besylate) [reference compound]
Yeast CLS increase ([1]; concentration tested 100 μM): No
PI intensity [1, 3]: 75,862.3
Outgrowth [2, 4]: 0.1

Escin
Yeast CLS increase ([1]; concentration tested 100 μM): No
PI intensity [1, 3]: 70,495.1
Outgrowth [2, 4]: 0.1

Estramustine (phosphate sodium) [reference compound]
Yeast CLS increase ([1]; concentration tested 100 μM): No
PI intensity [1, 3]: 77,514.0
Outgrowth [2, 4]: 0.2

Estrone sulfate (potassium)
Yeast CLS increase ([1]; concentration tested 100 μM): No
PI intensity [1, 3]: 54,751.8
Outgrowth [2, 4]: 0.1

Gentamicin (sulfate) [reference compound]
Yeast CLS increase ([1]; concentration tested 30 μg/mL): No
PI intensity [1, 5]: 73,296.2
Outgrowth [2, 6]: 0.1

Gramicidin [reference compound]
Yeast CLS increase ([1]; concentration tested 100 μM): No
PI intensity [1, 3]: 79,922.3
Outgrowth [2, 4]: 0.1

Heparin (Lithium salt) [reference compound]
Yeast CLS increase ([1]; concentration tested 30 μg/mL): No
PI intensity [1, 5]: 77,829.1
Outgrowth [2, 6]: 0.1

Heparin (sodium salt) (MW 15 kDa) [reference compound]
Yeast CLS increase ([1]; concentration tested 30 μg/mL): No
PI intensity [1, 5]: 64,969.0
Outgrowth [2, 6]: 0.1

Hyaluronidase
Yeast CLS increase ([1]; concentration tested 30 μg/mL): No
PI intensity [1, 5]: 78,406.7
Outgrowth [2, 6]: 0.1

Melanin
Yeast CLS increase ([1]; concentration tested 100 μM): Yes
PI intensity [1, 3]: 39,360.1
Outgrowth [2, 4]: 1.0

Polidocanol [reference compound]
Yeast CLS increase ([1]; concentration tested 30 μg/mL): No
PI intensity [1, 5]: 74,745.5
Outgrowth [2, 6]: 0.1

Schisantherin B
Yeast CLS increase ([1]; concentration tested 100 μM): No
PI intensity [1, 3]: 68,765.7
Outgrowth [2, 4]: 0.1
